In experiment [1] the test system is DU-145 (prostate cancer) cells. Briefly: Confocal / fluorescence lifetime microscopy of doxorubicin uptake from rHDL-Doxorubicin nanoparticles. It is filed as cell-based. As to the method:
The data presented in FIGS. 11-12 were obtained via fluorescence lifetime microscopy via the following protocols. Apo A-I was labeled with Alexa Fluor 647 (Fluorescent dye Excitation: 650 nm; Emission:665 nm), using Alexa Fluor™ 647 Antibody Labeling Kit (by Thermo Fisher) according to the manufacturer's protocol. The rHDL-Doxorubicin nanoparticles were prepared with the Alexa Fluor 647 labeled Apo A-I, using the cholate dialysis protocol. The DU-145 (prostate cancer) cells were treated with the rHDL-Doxorubicin nanoparticles at 37° C./5% CO2 and observed under confocal microscopy for uptake of doxorubicin. In order to inhibit the uptake, […] antibody was used to block the receptor activity.
For imaging, the cells were plated on custom glass bottom petri dishes. Before imaging, the cells were washed with PBS, and doped with several concentrations of free or rHDL-doxorubicin formulations. For SR-B1 receptor blocking, the DU-145 cells were incubated with antibodies for SR-B1 receptor for 30 minutes at 5% CO2 and 37° C. The cells were excited with a 470 nm diode at 70% power, and the emission imaged at 600 nm. […] For dual label experiments, the samples were excited at 470 nm and 630 nm, with a 520 nm long pass filter on channel 1 to observe DOX fluorescence, and a 647 nm long pass on filter on channel 2 to observe […] emission. […]

Another experiment concerns cancer cells. As to conditions: encapsulated by HDL delivery particles; HDL receptor mediated mechanism (Lacko et al., 2002); cited from earlier work.

On to `COc1cccc2c1C(=O)c1c(O)c3c(c(O)c1C2=O)C[C@@](O)(C(=O)CO)C[C@@H]3O[C@H]1C[C@H](N)[C@H](O)[C@H](C)O1` [doxorubicin], for which the “cellular localization of doxorubicin” value in experiment [1] (DU-145 cells treated with rHDL-Doxorubicin nanoparticles, FIG. 11A, FIG. 12) was “released into the cell cytoplasm”.
For the compound `CC(=O)O[C@H]1C(=O)[C@@]2(C)[C@H]([C@H](OC(=O)c3ccccc3)[C@]3(O)C[C@H](OC(=O)[C@H](O)[C@@H](NC(=O)c4ccccc4)c4ccccc4)C(C)=C1C3(C)C)[C@]1(OC(C)=O)CO[C@@H]1C[C@@H]2O` [paclitaxel], the “uptake by cancer cells” value in the experiment with cancer cells is “taken up by cancer cells”.
Turning to “Alexa 647-conjugated Apo A-I: Apo A-I labeled with Alexa Fluor 647 fluorescent dye”, the “cellular localization of labeled Apo A-I” value in experiment [1] (DU-145 cells treated with rHDL-Doxorubicin nanoparticles prepared with labeled Apo A-I, FIG. 11B) was “only localized in the membrane of the cell and does not enter the cell”.

These data come from US20200138727A1, “ENHANCED THERAPEUTIC AGENT AND NUCLEIC ACID DELIVERY VIA HDL OR RECONSTITUTED HDL NANOPARTICLES” (UNIVERSITY OF NORTH TEXAS HEALTH SCIENCE CENTER, priority 2017, published 2020).
